Test results taken from patent publication US12570675B2, “Boronic acid compounds” (LG CHEM, LTD., priority 2020, dated 2026).

What follows are compounds tested against Proteasome chymotrypsin-like activity (S26 protein from RPMI8226 cells) (Homo sapiens, UniProt P28074). Details: S26 protein from RPMI8226 cell extract 2 ug/well, substrate 20 uM, 37° C., 90 minutes; read-out: Proteasome chymotrypsin-like activity inhibition IC50.
Assay type: biochemical
Outline: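 S26 proteasome fraction from homogenized RPMI8226 myeloma cells in 20 mM Tris-HCl pH 8.0 (2 ug extract/well) incubated 90 min at 37 °C with compound serially diluted from 10 uM (0.5% DMSO).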

Sequence of Proteasome chymotrypsin-like activity (S26 protein from RPMI8226 cells) (P28074 60-263 limits assumed): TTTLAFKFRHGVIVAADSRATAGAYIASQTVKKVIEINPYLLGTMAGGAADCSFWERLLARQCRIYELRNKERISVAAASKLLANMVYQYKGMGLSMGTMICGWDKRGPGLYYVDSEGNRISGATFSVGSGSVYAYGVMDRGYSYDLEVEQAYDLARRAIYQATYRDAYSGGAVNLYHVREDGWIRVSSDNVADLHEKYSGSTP

IC50 [nM]	Structure (SMILES)
< 10	CC(C)C[C@H](NC(=O)C1(Cc2cccc(Cl)c2)CC(CNC(=O)c2cccn3ccnc23)=NO1)B(O)O (stereo partly drawn) [Example 177, ((1R)-1-(5-(3-chlorobenzyl)-3-((imidazo[1,2-a]pyridin-8-carboxamido)methyl)-4,5-dihydroisoxazol-5-carboxamido)-3-methylbutyl)boronic acid]
< 50	CC(C)C[C@H](NC(=O)C1(C2(c3ccccc3)CC2)CC(CNC(=O)c2nccc3ccccc23)=NO1)B(O)O (stereo partly drawn) [Example 180, ((1R)-1-(3-((isoquinolin-1-carboxamido)methyl)-5-(1-phenylcyclopropyl)-4,5-dihydroisoxazol-5-carboxamido)-3-methylbutyl)boronic acid]
< 50	CC(C)C[C@H](NC(=O)C1(C2(c3ccccc3)CC2)CC(CNC(=O)c2cccn3ccnc23)=NO1)B(O)O (stereo partly drawn) [Example 181, ((1R)-1-(3-((imidazo[1,2-a]pyridin-8-carboxamido)methyl)-5-(1-phenylcyclopropyl)-4,5-dihydroisoxazol-5-carboxamido)-3-methylbutyl)boronic acid]
< 10	CC(C)C[C@H](NC(=O)C1(Cc2ccccc2)CC(CNC(=O)c2cc(C(C)C)on2)=NO1)B(O)O (stereo partly drawn) [Example 182, ((1R)-1-(5-benzyl-3-((5-isopropylisoxazol-3-carboxamido)methyl)-4,5-dihydroisoxazol-5-carboxamido)-3-methylbutyl)boronic acid]
< 10	CC(C)C[C@H](NC(=O)C1(Cc2cc(F)cc(F)c2)CC(CNC(=O)c2nccc3ccccc23)=NO1)B(O)O (stereo partly drawn) [Example 183, ((1R)-1-(5-(3,5-difluorobenzyl)-3-((isoquinolin-1-carboxamido)methyl)-4,5-dihydroisoxazol-5-carboxamido)-3-methylbutyl)boronic acid]
< 10	CC(C)C[C@H](NC(=O)C1(Cc2ccccc2)CC(CNC(=O)c2c(Cl)cnn2C)=NO1)B(O)O (stereo partly drawn) [Example 184, ((1R)-1-(5-benzyl-3-((4-chloro-1-methyl-1H-pyrazol-5-carboxamido)methyl)-4,5-dihydroisoxazol-5-carboxamido)-3-methylbutyl)boronic acid]
< 10	COC[C@@H](NC(=O)c1nccc2ccccc12)C1=NOC(Cc2ccccc2)(C(=O)N[C@@H](CC(C)C)B(O)O)C1 (stereo partly drawn) [Example 185, ((1R)-1-(5-benzyl-3-((S)-1-(isoquinolin-1-carboxamido)-2-methoxyethyl)-4,5-dihydroisoxazol-5-carboxamido)-3-methylbutyl)boronic acid]
< 25	COCCn1nccc1C(=O)NCC1=NOC(Cc2ccccc2)(C(=O)N[C@@H](CC(C)C)B(O)O)C1 (stereo partly drawn) [Example 191, ((1R)-1-(5-benzyl-3-((1-(2-methoxyethyl)-1H-pyrazol-5-carboxamido)methyl)-4,5-dihydroisoxazol-5-carboxamido)-3-methylbutyl)boronic acid]
< 10	COCC1(C(=O)N[C@@H](CC(C)C)B(O)O)CC(CNC(=O)c2nccc3ccccc23)=NO1 (stereo partly drawn) [Example 192, ((1R)-1-(3-((isoquinolin-1-carboxamido)methyl)-5-(methoxymethyl)-4,5-dihydroisoxazol-5-carboxamido)-3-methylbutyl)boronic acid]
< 10	CCOCC1(C(=O)N[C@@H](CC(C)C)B(O)O)CC(CNC(=O)c2nccc3ccccc23)=NO1 (stereo partly drawn) [Example 193, ((1R)-1-(5-(ethoxymethyl)-3-((isoquinolin-1-carboxamido)methyl)-4,5-dihydroisoxazol-5-carboxamido)-3-methylbutyl)boronic acid]
< 250	Cc1cccc(C(=O)N[C@@H](CC(C)C)C2=NOC(Cc3ccccc3)(C(=O)N[C@@H](CC(C)C)B(O)O)C2)n1 (stereo partly drawn) [Example 194, ((1R)-1-(5-benzyl-3-((S)-3-methyl-1-(6-methylpicolinamido)butyl)-4,5-dihydroisoxazol-5-carboxamido)-3-methylbutyl)boronic acid]
< 50	COC[C@H](NC(=O)c1cccc(C)n1)C1=NOC(Cc2ccccc2)(C(=O)N[C@@H](CC(C)C)B(O)O)C1 (stereo partly drawn) [Example 195, ((1R)-1-(5-benzyl-3-((R)-2-methoxy-1-(6-methylpicolinamido)ethyl)-4,5-dihydroisoxazol-5-carboxamido)-3-methylbutyl)boronic acid]
< 10	CC(C)C[C@H](NC(=O)C1(Cc2ccccc2)CC(CNC(=O)c2ccnn2C2CCOCC2)=NO1)B(O)O (stereo partly drawn) [Example 197, ((1R)-1-(5-benzyl-3-((1-(tetrahydro-2H-pyran-4-yl)-1H-pyrazol-5-carboxamido)methyl)-4,5-dihydroisoxazol-5-carboxamido)-3-methylbutyl)boronic acid]
< 100	CC(C)C[C@H](NC(=O)C12CCCC1C(CNC(=O)c1nccc3ccccc13)=NO2)B(O)O (stereo partly drawn) [Example 198, ((1R)-1-(3-((isoquinolin-1-carboxamido)methyl)-3a,5,6,6a-tetrahydro-4H-cyclopenta[d]isoxazol-6a-carboxamido)-3-methylbutyl)boronic acid]
< 1000	CC(C)C[C@H](NC(=O)C12CCCC1C(CNC(=O)c1cccn3ccnc13)=NO2)B(O)O (stereo partly drawn) [Example 199, ((1R)-1-(3-((imidazo[1,2-a]pyridin-8-carboxamido)methyl)-3a,5,6,6a-tetrahydro-4H-cyclopenta[d]isoxazol-6a-carboxamido)-3-methylbutyl)boronic acid]
< 10	CC(C)C[C@H](NC(=O)C1(Cc2cccc(F)c2F)CC(CNC(=O)c2nccc3ccccc23)=NO1)B(O)O (stereo partly drawn) [Example 203, ((1R)-1-(5-(2,3-difluorobenzyl)-3-((isoquinolin-1-carboxamido)methyl)-4,5-dihydroisoxazol-5-carboxamido)-3-methylbutyl)boronic acid]
< 10	Cc1nn(C(C)C)cc1C(=O)NCC1=NOC(Cc2ccccc2)(C(=O)N[C@@H](CC(C)C)B(O)O)C1 (stereo partly drawn) [Example 206, ((1R)-1-(5-benzyl-3-((1-isopropyl-3-methyl-1H-pyrazol-4-carboxamido)methyl)-4,5-dihydroisoxazol-5-carboxamido)-3-methylbutyl)boronic acid]
< 10	CC(C)C[C@H](NC(=O)C1(Cc2ccccc2)CC(CNC(=O)c2cn(C)c3ccccc23)=NO1)B(O)O (stereo partly drawn) [Example 208, ((1R)-1-(5-benzyl-3-((1-methyl-1H-indol-3-carboxamido)methyl)-4,5-dihydroisoxazol-5-carboxamido)-3-methylbutyl)boronic acid]
< 10	CC(C)C[C@H](NC(=O)C1(Cc2ccccc2)CC(CNC(=O)c2ccnc3c2ccn3C)=NO1)B(O)O (stereo partly drawn) [Example 210, ((1R)-1-(5-benzyl-3-((1-methyl-1H-pyrrolo[2,3-b]pyridin-4-carboxamido)methyl)-4,5-dihydroisoxazol-5-carboxamido)-3-methylbutyl)boronic acid]
< 10	Cc1cc(C(=O)NCC2=NOC(Cc3ccccc3)(C(=O)N[C@@H](CC(C)C)B(O)O)C2)n(-c2ccccn2)n1 (stereo partly drawn) [Example 213, ((1R)-1-(5-benzyl-3-((3-methyl-1-(pyridin-2-yl)-1H-pyrazol-5-carboxamido)methyl)-4,5-dihydroisoxazol-5-carboxamido)-3-methylbutyl)boronic acid]
< 10	CC(C)C[C@H](NC(=O)C1(COC2CCCCC2)CC(CNC(=O)c2nccc3ccccc23)=NO1)B(O)O (stereo partly drawn) [Example 214, ((1R)-1-(5-((cyclohexyloxy)methyl)-3-((isoquinolin-1-carboxamido)methyl)-4,5-dihydroisoxazol-5-carboxamido)-3-methylbutyl)boronic acid]
< 10	CC(C)C[C@H](NC(=O)C1(Cc2cccc(C(F)(F)F)c2)CC(CNC(=O)c2nccc3ccccc23)=NO1)B(O)O (stereo partly drawn) [Example 215, ((1R)-1-(3-((isoquinolin-1-carboxamido)methyl)-5-(3-(trifluoromethyl)benzyl)-4,5-dihydroisoxazol-5-carboxamido)-3-methylbutyl)boronic acid]
< 10	CC(C)C[C@H](NC(=O)C1(Cc2cccc(OC(F)(F)F)c2)CC(CNC(=O)c2nccc3ccccc23)=NO1)B(O)O (stereo partly drawn) [Example 216, ((1R)-1-(3-((isoquinolin-1-carboxamido)methyl)-5-(3-(trifluoromethoxy)benzyl)-4,5-dihydroisoxazol-5-carboxamido)-3-methylbutyl)boronic acid]
< 10	Cc1cccc(CC2(C(=O)N[C@@H](CC(C)C)B(O)O)CC(CNC(=O)c3sc(C)nc3C)=NO2)c1 (stereo partly drawn) [Example 217, ((1R)-1-(3-((2,4-dimethylthiazol-5-carboxamido)methyl)-5-(3-methylbenzyl)-4,5-dihydroisoxazol-5-carboxamido)-3-methylbutyl)boronic acid]
< 10	Cc1cc(C(=O)NCC2=NOC(Cc3ccccc3)(C(=O)N[C@@H](CC(C)C)B(O)O)C2)n(C2CCOCC2)n1 (stereo partly drawn) [Example 218, ((1R)-1-(5-benzyl-3-((3-methyl-1-(tetrahydro-2H-pyran-4-yl)-1H-pyrazol-5-carboxamido)methyl)-4,5-dihydroisoxazol-5-carboxamido)-3-methylbutyl)boronic acid]
< 10	Cc1nc(C)c(C(=O)NCC2=NOC(Cc3cccc(Cl)c3)(C(=O)N[C@@H](CC(C)C)B(O)O)C2)s1 (stereo partly drawn) [Example 219, ((1R)-1-(5-(3-chlorobenzyl)-3-((2,4-dimethylthiazol-5-carboxamido)methyl)-4,5-dihydroisoxazol-5-carboxamido)-3-methylbutyl)boronic acid]
< 10	CC(C)C[C@H](NC(=O)C1(Cc2ccccc2)CC(CNC(=O)c2cnn(C)c2)=NO1)B(O)O (stereo partly drawn) [Example 220, ((1R)-1-(5-benzyl-3-((1-methyl-1H-pyrazol-4-carboxamido)methyl)-4,5-dihydroisoxazol-5-carboxamido)-3-methylbutyl)boronic acid]
< 10	CC(C)C[C@H](NC(=O)C1(Cc2ccccc2)CC(CNC(=O)c2cc(-c3ccccn3)nn2C(C)C)=NO1)B(O)O (stereo partly drawn) [Example 221, ((1R)-1-(5-benzyl-3-((1-isopropyl-3-(pyridin-2-yl)-1H-pyrazol-5-carboxamido)methyl)-4,5-dihydroisoxazol-5-carboxamido)-3-methylbutyl)boronic acid]
